Reference: patent US8309552B2, “Immunomodulating heterocyclic compounds” (Medigene AG, priority 2003, dated 2012)

biological target: T1, CD80-CD28 interaction (Homo sapiens, UniProt P33681); test: Homogenous Time Resolved Fluorescence (HTRF) assay, cell free; format: binding; details: cell free HTRF assay; concentration series 100 μM-1.7 nM; 4 hours at room temperature; read-out: Activity (EC50 in the HTRF assay)
T1 sequence (P33681 35-242 limits assumed): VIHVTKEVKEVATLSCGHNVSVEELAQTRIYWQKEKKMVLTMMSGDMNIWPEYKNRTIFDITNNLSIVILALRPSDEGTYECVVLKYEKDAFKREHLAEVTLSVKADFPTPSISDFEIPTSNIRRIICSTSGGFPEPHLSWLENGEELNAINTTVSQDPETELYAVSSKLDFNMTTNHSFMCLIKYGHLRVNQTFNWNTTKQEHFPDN
Outline: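 Europium and APC labels were linked through antibodies to CD28 and CD80 fusion proteins. Compounds were tested at 100 μM-1.7 nM for 4 h at room temperature in 50 mM Tris-HCl, 150 mM NaCl pH7.8, 0.1% BSA. Emission read at 665 and 615 nm (excitation 340 nm); non-specific signal measured with C215 Fab in place of CD80; EC50 reported in bands.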

Row | Compound | EC50 [nM]
1 | O=C(NCCc1ccccc1Cl)c1ccc(-n2[nH]c3c(nnc4c(F)cccc43)c2=O)cc1 [Example 360] | 1000 to 10000
2 | Cc1ccc(CCNC(=O)c2ccc(-n3[nH]c4c(nnc5c(F)cccc54)c3=O)cc2)cc1 [Example 362] | 1000 to 10000
3 | O=C(NCCc1ccc(Cl)cc1)c1ccc(-n2[nH]c3c(nnc4c(F)cccc43)c2=O)cc1 [Example 363] | 1000 to 10000
4 | O=C(NCCc1cccc(Cl)c1)c1ccc(-n2[nH]c3c(nnc4c(F)cccc43)c2=O)cc1 [Example 364] | 1000 to 10000
5 | O=C(NCCc1cccc(Br)c1)c1ccc(-n2[nH]c3c(nnc4c(F)cccc43)c2=O)cc1 [Example 365] | > 10000
6 | Cc1ccccc1CCNC(=O)c1ccc(-n2[nH]c3c(nnc4c(F)cccc43)c2=O)cc1 [Example 366] | 1000 to 10000
7 | O=C(NCCc1ccccc1Br)c1ccc(-n2[nH]c3c(nnc4c(F)cccc43)c2=O)cc1 [Example 368] | 1000 to 10000
8 | O=C(NCCc1c(F)cccc1Cl)c1ccc(-n2[nH]c3c(nnc4c(F)cccc43)c2=O)cc1 [Example 369] | 1000 to 10000
9 | O=C(NCCc1ccc(Cl)cc1Cl)c1ccc(-n2[nH]c3c(nnc4c(F)cccc43)c2=O)cc1 [Example 370] | 1000 to 10000
10 | O=C(NCCc1c(Cl)cccc1Cl)c1ccc(-n2[nH]c3c(nnc4c(F)cccc43)c2=O)cc1 [Example 371] | 1000 to 10000
11 | O=C(NCCc1ccc(Cl)c(Cl)c1)c1ccc(-n2[nH]c3c(nnc4c(F)cccc43)c2=O)cc1 [Example 372] | 1000 to 10000
12 | O=C(NCCc1cccc(F)c1)c1ccc(-n2[nH]c3c(nnc4c(F)cccc43)c2=O)cc1 [Example 373] | 1000 to 10000
13 | O=C(NC1CN2CCC1CC2)c1ccc(-n2[nH]c3c(nnc4cccc(F)c43)c2=O)cc1 (centres unmarked) [Example 401] | < 1000
14 | O=C(c1ccc(-n2[nH]c3c(nnc4cccc(F)c43)c2=O)cc1)N1CCC(N2CCCCC2)CC1 [Example 402] | 1000 to 10000
15 | CN(C)CC(C)(C)CNC(=O)c1ccc(-n2[nH]c3c(nnc4cccc(F)c43)c2=O)cc1 [Example 404] | < 1000
16 | NC1CCC(NC(=O)c2ccc(-n3[nH]c4c(nnc5cccc(F)c54)c3=O)cc2)CC1 (centres unmarked) [Example 405] | < 1000
17 | Cc1ccc2nnc3c(=O)n(-c4ccc(C(=O)NCCCN(C)C)cc4)[nH]c3c2c1 [Example 406] | < 1000
18 | Cc1ccc2nnc3c(=O)n(-c4ccc(C(=O)NCCCNC5CCCCC5)cc4)[nH]c3c2c1 [Example 407] | < 1000
19 | Cc1ccc2nnc3c(=O)n(-c4ccc(C(=O)NC5CC(C)(C)N(C)C(C)(C)C5)cc4)[nH]c3c2c1 [Example 408] | < 1000
20 | Cc1ccc2nnc3c(=O)n(-c4ccc(C(=O)NCCCCN5CCCC5)cc4)[nH]c3c2c1 [Example 409] | < 1000
21 | NC1CCC(NC(=O)c2ccc(-n3[nH]c4c(nnc5c(F)cccc54)c3=O)cc2)CC1 (centres unmarked) [Example 410] | < 1000

Row | Compound | EC50 [nM]
22 | CN(C)CCCNC(=O)c1ccc(-n2[nH]c3c(nnc4c(Cl)cccc43)c2=O)cc1 [Example 411] | < 1000
23 | O=C(NCCCNC1CCCCC1)c1ccc(-n2[nH]c3c(nnc4c(Cl)cccc43)c2=O)cc1 [Example 412] | < 1000
24 | O=C(NCCCCN1CCCC1)c1ccc(-n2[nH]c3c(nnc4c(Cl)cccc43)c2=O)cc1 [Example 413] | < 1000
25 | CN(C)CCCNC(=O)c1ccc(-n2[nH]c3c(nnc4c(F)cc(F)cc43)c2=O)cc1 [Example 414] | < 1000
26 | O=C(NCCCNC1CCCCC1)c1ccc(-n2[nH]c3c(nnc4c(F)cc(F)cc43)c2=O)cc1 [Example 415] | < 1000
27 | O=C(NCCCCN1CCCC1)c1ccc(-n2[nH]c3c(nnc4c(F)cc(F)cc43)c2=O)cc1 [Example 416] | < 1000
28 | CNCCCNC(=O)c1ccc(-n2[nH]c3c(nnc4ccc(OC)cc43)c2=O)cc1 [Example 418] | < 1000
29 | O=C(NCCCCN1CCSCC1)c1ccc(-n2[nH]c3c(nnc4c(F)cccc43)c2=O)cc1 [Example 419] | < 1000
30 | CN(C)CC(C)(C)CNC(=O)c1ccc(-n2[nH]c3c(nnc4c(F)cccc43)c2=O)cc1 [Example 420] | < 1000
31 | O=C(c1ccc(-n2[nH]c3c(nnc4c(F)cccc43)c2=O)cc1)N1CCC(N2CCCCC2)CC1 [Example 421] | 1000 to 10000
32 | O=C(NC1CCC1)c1ccc(-n2[nH]c3c(nnc4c(F)cccc43)c2=O)cc1 [Example 424] | < 1000
33 | O=C(NC1CCCC1)c1ccc(-n2[nH]c3c(nnc4c(F)cccc43)c2=O)cc1 [Example 425] | < 1000
34 | O=C(NCCF)c1ccc(-n2[nH]c3c(nnc4c(F)cccc43)c2=O)cc1 [Example 426] | < 1000
35 | CN1C(C)(C)CC(NC(=O)c2ccc(-n3[nH]c4c(nnc5ccc(F)cc54)c3=O)cc2)CC1(C)C [Example 427] | < 1000
36 | CNCCCNC(=O)c1ccc(-n2[nH]c3c(nnc4c(F)ccc(F)c43)c2=O)cc1 [Example 428] | < 1000
37 | O=C(NCCCCN1CCCC1)c1ccc(-n2[nH]c3c(nnc4c(F)ccc(F)c43)c2=O)cc1 [Example 430] | < 1000
38 | CN1C(C)(C)CC(NC(=O)c2ccc(-n3[nH]c4c(nnc5c(F)ccc(F)c54)c3=O)cc2)CC1(C)C [Example 431] | < 1000
39 | CCN(C)CCCCNC(=O)c1ccc(-n2[nH]c3c(nnc4c(F)cccc43)c2=O)cc1 [Example 432] | < 1000
40 | O=C(NCCCCN1CCOCC1)c1ccc(-n2[nH]c3c(nnc4c(F)cccc43)c2=O)cc1 [Example 434] | < 1000
41 | C=CCN(C)CCCCNC(=O)c1ccc(-n2[nH]c3c(nnc4c(F)cccc43)c2=O)cc1 [Example 435] | < 1000
42 | CN(CCCCNC(=O)c1ccc(-n2[nH]c3c(nnc4c(F)cccc43)c2=O)cc1)C1CCCCC1 [Example 436] | < 1000

Second part, the compound after the results:

Row | EC50 [nM] | Compound
43 | < 1000 | CNCCNC(=O)c1ccc(-n2[nH]c3c(nnc4c(F)cccc43)c2=O)cc1 [Example 356]
44 | < 1000 | CCNCCNC(=O)c1ccc(-n2[nH]c3c(nnc4c(F)cccc43)c2=O)cc1 [Example 357]
45 | < 1000 | CC1CCCCN1CCCNC(=O)c1ccc(-n2[nH]c3c(nnc4c(F)cccc43)c2=O)cc1 (centres unmarked) [Example 358]
46 | < 1000 | CC(Cc1c[nH]c2ccccc12)NC(=O)c1ccc(-n2[nH]c3c(nnc4c(F)cccc43)c2=O)cc1 (centres unmarked) [Example 359]
47 | < 1000 | CC1(C)CC(NC(=O)c2ccc(-n3[nH]c4c(nnc5c(F)cccc54)c3=O)cc2)CC(C)(C)N1 [Example 374]
48 | < 1000 | CC(C)(C)NC(=O)c1ccc(-n2[nH]c3c(nnc4c(F)cccc43)c2=O)cc1 [Example 375]
49 | < 1000 | C=CCNC(=O)c1ccc(-n2[nH]c3c(nnc4c(F)cccc43)c2=O)cc1 [Example 377]
50 | < 1000 | CC(C)(C)c1ccc(CN2CCC(NC(=O)c3ccc(-n4[nH]c5c(nnc6c(F)cccc65)c4=O)cc3)CC2)cc1 [Example 378]
51 | < 1000 | CS(=O)(=O)c1ccc(CN2CCC(NC(=O)c3ccc(-n4[nH]c5c(nnc6c(F)cccc65)c4=O)cc3)CC2)cc1 [Example 380]
52 | < 1000 | CCCCNCCNC(=O)c1ccc(-n2[nH]c3c(nnc4ccc(F)cc43)c2=O)cc1 [Example 384]
53 | < 1000 | CC(C)NCCCNC(=O)c1ccc(-n2[nH]c3c(nnc4ccc(F)cc43)c2=O)cc1 [Example 385]
54 | < 1000 | O=C(NCCCCO)c1ccc(-n2[nH]c3c(nnc4ccc(F)cc43)c2=O)cc1 [Example 386]
55 | < 1000 | CN(C)CCCNC(=O)c1ccc(-n2[nH]c3c(nnc4cccc(F)c43)c2=O)cc1 [Example 387]
56 | < 1000 | O=C(NCCCCN1CCCC1)c1ccc(-n2[nH]c3c(nnc4cccc(F)c43)c2=O)cc1 [Example 388]
57 | < 1000 | O=C(NCCCNC1CCCCC1)c1ccc(-n2[nH]c3c(nnc4cccc(F)c43)c2=O)cc1 [Example 389]
58 | < 1000 | CN1C(C)(C)CC(NC(=O)c2ccc(-n3[nH]c4c(nnc5cccc(F)c54)c3=O)cc2)CC1(C)C [Example 390]
59 | < 1000 | CN1CCC(NC(=O)c2ccc(-n3[nH]c4c(nnc5cccc(F)c54)c3=O)cc2)CC1 [Example 391]
60 | < 1000 | CCN(CC)CCCNC(=O)c1ccc(-n2[nH]c3c(nnc4cccc(F)c43)c2=O)cc1 [Example 392]
61 | < 1000 | O=C(NCCCN1CCCC1)c1ccc(-n2[nH]c3c(nnc4cccc(F)c43)c2=O)cc1 [Example 393]
62 | < 1000 | CC1CCCCN1CCCNC(=O)c1ccc(-n2[nH]c3c(nnc4cccc(F)c43)c2=O)cc1 (centres unmarked) [Example 394]
63 | < 1000 | CC(C)NCCCNC(=O)c1ccc(-n2[nH]c3c(nnc4cccc(F)c43)c2=O)cc1 [Example 395]
64 | < 1000 | CNCCCNC(=O)c1ccc(-n2[nH]c3c(nnc4cccc(F)c43)c2=O)cc1 [Example 396]
65 | < 1000 | O=C(NCCCN1CCOCC1)c1ccc(-n2[nH]c3c(nnc4cccc(F)c43)c2=O)cc1 [Example 397]
66 | < 1000 | CCCCN(CCCC)CCCNC(=O)c1ccc(-n2[nH]c3c(nnc4cccc(F)c43)c2=O)cc1 [Example 398]
67 | < 1000 | O=C(NC1CCN(Cc2ccccc2)C1)c1ccc(-n2[nH]c3c(nnc4cccc(F)c43)c2=O)cc1 (centres unmarked) [Example 399]
68 | < 1000 | CC(C)(C)NC(=O)c1ccc(-n2[nH]c3c(nnc4cccc(F)c43)c2=O)cc1 [Example 400]
69 | < 1000 | CC1(C)CC(NC(=O)c2ccc(-n3[nH]c4c(nnc5cccc(F)c54)c3=O)cc2)CC(C)(C)N1 [Example 403]

same assay, conditions: cell-free HTRF, concentration series 100 μM-1.7 nM, 4 hours at room temperature; read-out: Activity (EC50 in the HTRF assay)

Row | Compound | EC50 [nM]
70 | O=C(NCCCCF)c1ccc(-n2[nH]c3c(nnc4c(F)cccc43)c2=O)cc1 [Example 437] | < 1000
71 | CN(CCCNC(=O)c1ccc(-n2[nH]c3c(nnc4c(F)cccc43)c2=O)cc1)c1ccccc1 [Example 438] | 1000 to 10000
